The text below walks through data of a melting point compilation (Tetko et al.; mined from patent text by program, amines drawn as free bases though some values may be those of a salt).

The term melting point denotes the temperature of the solid-liquid transition.

The structures appear in SMILES notation.

As for `CC(C)N1CCN(C(=O)OC2CCN(c3ccc(C(N)=O)cn3)CC2)CC1`, the melting point fell in the range of 200 to 204 °C.

`CCc1nn(C2CCCC2)c2cc(C(=O)NCC(=O)O)ccc12`: the melting point lay within 182 to 184 °C.

`O=C(OCN1C(=O)c2ccccc2C1=O)c1ccccc1[N+](=O)[O-]` gave a melting point of 159 to 160 °C.

In turn, `COc1ccc(COc2ccc3c(c2)C(c2ccc(C(C)C)cc2)C(C)(C)O3)cc1` (stereo not given) came in with a melting point of 124 to 126 °C.

`C[C@@H](N1CCN(c2ccc(-n3cnn(Cc4ccc(OCC(F)(F)C(F)F)cc4)c3=O)cc2)CC1)[C@](O)(Cn1cncn1)c1ccc(F)cc1F`: the melting point lay in the range of 83 to 85 °C.

Regarding `CCCCC(=NO)C(C)(C)NOC(CNC(C)(C)C(CC)=NO)Cn1ccnc1[N+](=O)[O-]` (stereo not given), the melting point is 153 to 154 °C.

The molecule `CCC1NC(c2cc(Cl)nc(Cl)c2)=NC(=O)C1C(=O)OC` (stereo not given) showed a melting point of 188 to 189 °C.

As to `O=C1N[C@H](c2ccccc2)CSC[C@@H]1N1C(=O)c2ccccc2C1=O`, the melting point was in the range of 280 to 282 °C.

As for `CC(C)S(=O)(=O)Nc1cccc2c3c([nH]c12)C(=O)CCC3`, the melting point fell in the range of 267 to 268 °C.

`O=S(=O)(c1ccccc1)C(F)(F)C(O)c1ccccc1` (stereo not given): the melting point fell in the range of 77 to 79 °C.

Molecule `CCCc1c(CSc2ncccc2O)ccc(C(C)=O)c1O` displayed a melting point of 126 °C.

Molecule `CCOC(=O)c1ccc(NC(=O)c2cccnc2)cc1` came in with a melting point of 125 to 127 °C.

`O=S1(=O)c2cccc3cccc(c23)N1CCCCN1CCN(c2noc3ccccc23)CC1` returned a melting point of 138 °C.

`c1ccc(-c2ccc3nc(COc4ccc(CCCn5ccnc5)cc4)cn3c2)cc1` returned a melting point of 106 to 107 °C.

Take `COc1cc(Nc2nccc(-c3ccc(CN)cc3)n2)cc(OC)c1OC`: the melting point was in the range of 143 to 144 °C.

Molecule `CCCCNS(=O)(=O)CC(O)C(O)C(CC1CCCCC1)NC(=O)c1ccncc1` (stereo not given) came in with a melting point of 168 to 186 °C.

Molecule `N#Cc1cccn(-c2cccnc2Cl)c1=O` returned a melting point of 145 °C.

`CC(C)C(=O)N[C@@H](CSC(=O)C(C)C)C(=O)NCCSC(=O)C(C)C` came in with a melting point of 94 to 96 °C.

For the molecule `O=c1c2cccc3ncc(c(=O)n1CCCCNS(=O)(=O)CC(F)(F)F)n32`, the melting point lay in the range of 154 to 155 °C.

Regarding `CCOC(=O)c1sc(-n2cnn(CC3CC3(F)F)c2=O)nc1C` (stereo not given), the melting point fell in the range of 146 to 148 °C.

Regarding `COc1ccc(S(=O)(=O)c2c(Br)cc(CC(=O)O)cc2Br)cc1C(C)C`, the melting point lay within 170 to 173 °C.

Turning to `O=[N+]([O-])c1c(-c2ccc(Cl)cc2)[nH]c(C(F)(F)F)c1-c1csc(Br)c1`, the melting point is 174 to 176 °C.

As for `COc1cc(CCC(=O)O)ccc1OCc1sc(-c2ccc(C(F)(F)F)cc2)nc1C`, the melting point lay within 150 to 152 °C.

The molecule `COc1ccc2c(=O)cc(-c3ccc(O)c(O)c3)oc2c1` displayed a melting point greater than 240 °C.

In the case of `NC(=O)c1ccc(-c2ccc3nnn(Cc4ccc5ncsc5c4)c3n2)cc1Cl`, the melting point lay within 238 to 240 °C.

`Cc1cc(O)c(Cc2ccc(C(C)C)cc2)c(C)c1N(Cc1ccccc1)C(=O)CC(C)(C)C`: the melting point is 167 to 168 °C.

Turning to `CC(C(=O)O)c1ccc(-c2ccc(F)cc2)c(O)c1` (stereo not given), the melting point fell in the range of 138 to 142 °C.

The molecule `COC(=O)[C@@H]1COC(=S)N1Cc1ccccc1` displayed a melting point of 101 to 102 °C.

Take `O=C1Oc2ccccc2NC1Cl` (stereo not given): the melting point fell in the range of 133 to 136 °C.

Turning to `Cn1ncnc1COc1nn2c(-c3ccccc3F)nnc2cc1CC1CCCC1`, the melting point fell in the range of 135 to 137 °C.

`O=Cc1cc(-c2ccc3nnn(Cc4ccc5ncccc5c4)c3n2)cs1` showed a melting point of 195 to 197 °C.

In turn, `Cc1ccc(-c2nc(C)c(C)c(=O)[nH]2)cc1` displayed a melting point of 250 °C.

Regarding `OC1CCN(CCCc2noc3cc(F)ccc23)CC1`, the melting point lay within 88 to 89 °C.

Take `COc1cc(OC)nc(Oc2cccc(Cl)c2C(=O)Oc2ccc([N+](=O)[O-])cc2)n1`: the melting point lay within 130 to 132 °C.

The molecule `CSc1ccc(C(O)c2ccccc2)cc1` (stereo not given) returned a melting point of 92 to 93.5 °C.

Consider `N#CC(=NO)c1cccnc1`, for which the melting point lay in the range of 234 to 238 °C.

Regarding `O=CC(=C1NCCCS1)[N+](=O)[O-]`, the melting point is 171 to 172 °C.

For `NS(=O)(=O)c1ccsc1C1=CC(=O)CCC1`, the melting point was 140 to 147 °C.

Regarding `Nc1nc(=O)n([C@@H]2CC[C@H](CO)O2)cc1F`, the melting point lay in the range of 147 to 149 °C.

`Cc1ccc2c3c(ccc2n1)OCC(CN1C2CCC1CC(O)(c1ccc4ccccc4c1)C2)O3` (stereo not given) returned a melting point of 218 °C.

Consider `NC(=O)NCCN1CCC(O[N+](=O)[O-])CC1`, for which the melting point was in the range of 114 to 116 °C.

`O=C(Cc1ccccc1)Nc1cc(C(=O)O)cc(C(=O)O)c1`: the melting point was greater than 300 °C.

With `O=C1OC(=O)C2CC(F)(F)CC12` (stereo not given), the melting point amounted to 50 °C.

`CN(C)S(=O)(=O)c1cnc(NC(=O)[C@H](CC2CCCC2)c2ccc(S(C)(=O)=O)c(Cl)c2)cn1` had a melting point of 100 °C.

Regarding `COC1=CN=C(COC(c2ccccc2)(c2ccccc2)c2ccccc2)CC1=O`, the melting point lay within 185 to 187 °C.

As for `CCCCCCCCC1(CCn2ccnc2)SCCS1`, the melting point lay within 98 to 101 °C.

On to `CC(C)[C@H](NC(=O)N(C)Cc1ccccn1)C(=O)N[C@@H](Cc1ccccc1)[C@@H](O)[C@@H](O)[C@H](Cc1ccccc1)NC(=O)OC(C)(C)C`, for which the melting point is 91 to 93 °C.

`CCCCCc1cccc2c1C(=O)N(OC1C(CO)OC(n3cnc4c(N)ncnc43)C1O)C2=O` (stereo not given): the melting point fell in the range of 159 to 160 °C.

For `CC(C)(C)OC(=O)N[C@@H](Cc1ccc(NC(=O)c2csc(NC(=O)NCc3ccccc3)n2)cc1)C(=O)O`, the melting point came out at 231 °C.

With `CC(C)[C@H](NC(=O)OCc1ccccc1)C(=O)OC[C@H]1O[C@@H](n2cc(F)c(=O)[nH]c2=O)[C@H](O)[C@@H]1O`, the melting point was 64 to 67 °C.

`OCCCCC(F)(F)C(F)(F)CCO`: the melting point fell in the range of 52 to 55 °C.

As to `O=C(/C=C/c1c[nH]c2ccccc12)c1cccnc1`, the melting point is 192 to 194 °C.

Regarding `CCCC(=O)C1=C(O)CC(c2c(C)c(C)c(C)c3ccoc23)CC1=O` (stereo not given), the melting point turned out to be 130 °C.

On to `CCCc1c(OCCCCCOc2ccc3cc(OCC(=O)OCC)ccc3c2CCC(=O)OCC)ccc2c1OCCC2=O`, for which the melting point lay in the range of 100 to 102 °C.

In turn, `CSc1cc(Cl)cc(C(=O)O)c1` registered a melting point of 148 to 150 °C.

`COC(=O)c1ccc(OCC2CN(c3ccc([N+](=O)[O-])cc3)C(=O)O2)cc1` (stereo not given) gave a melting point of 200 to 201 °C.

Molecule `COc1ccc(-c2nc3ccc(OC)cc3c(Br)c2Cl)cc1` gave a melting point of 184 to 185 °C.

The molecule `CCCCc1csc2ccc([N+](=O)[O-])cc12` had a melting point of 82 to 83 °C.

The molecule `CCNCC(=O)Nc1ccc2c(c1)C(=O)c1cc(NC(=O)CNCC)ccc1C2=O` returned a melting point of 145 °C.

As for `CCOC(=O)Nc1ccc(NC(=O)OCc2ccccc2)c(O)c1`, the melting point turned out to be 190 °C.

In turn, `CCOC(=O)CCc1ccc2c(c1)nc(N)c1nc(CC)n(CC3CCOCC3)c12` had a melting point of 172 to 173 °C.

For `COc1c(O)cnc(CNc2nc(C)nc(C)c2Cl)c1C`, the melting point was in the range of 220 to 224 °C.

Turning to `NC(=O)C(c1ccccc1)(c1ccccc1)C1CCN(C2CCCCC2)C1` (stereo not given), the melting point fell in the range of 119 to 121 °C.

Take `CSc1c(C)n(C)c2ccccc12`: the melting point is 50 to 52 °C.

In turn, `O=c1c2ccccc2nc(-c2sc(Nc3ccccc3)nc2-c2ccccc2)n1-c1ccccc1` registered a melting point of 181 to 182 °C.

Consider `CCC(Cc1c(I)cc(I)c(NC(=O)CCl)c1I)C(=O)O` (stereo not given), for which the melting point turned out to be 157 °C.

The molecule `CCOC(=O)Cc1cnc(NC(C)C)nc1Cl` showed a melting point of 67 to 71 °C.

Molecule `CS(=O)(=O)C(=C1CN(C(c2ccccc2)c2ccccc2)C1)c1cccc([N+](=O)[O-])c1` registered a melting point of 184 °C.

Molecule `CCOC(=O)c1cc(O)nn1-c1ncc(Cl)cc1Cl` came in with a melting point of 164 to 167 °C.

As for `COC(=O)NC(CC(=O)c1ccccc1)C(=O)O` (stereo not given), the melting point was in the range of 132 to 135 °C.

The molecule `Nc1ccc(OCCN2CCN(c3nsc4ccccc34)CC2)cc1` yielded a melting point of 128 °C.

Regarding `COC(=O)CC(NC(=O)C(C)(C)C)C(C)=O` (stereo not given), the melting point was in the range of 68 to 69 °C.

The molecule `CCOC(=O)c1cc(OC)c2oc(C)c(C)c2c1` showed a melting point of 67 to 68 °C.

Turning to `CC(C)CC1(C(CCN2C(=O)c3ccccc3C2=O)C(=O)NO)CCN(Cc2ccccc2)C1=O` (stereo not given), the melting point lay within 162 to 164 °C.

For `CCCCc1nc2cc(Br)cc(C(=O)O)c2n1Cc1ccccc1Cl`, the melting point lay within 254 to 255 °C.

As for `CCS(=O)(=O)c1ccc(C(CC2CCCC2)C(=O)NC(=O)NC)cc1` (stereo not given), the melting point lay in the range of 200 to 201 °C.

For `O=C(Nc1ccccc1)NC1C(=O)Nc2ccccc2N(CC23CC4CC(CC(C4)C2)C3)C1=O` (stereo not given), the melting point was greater than 280 °C.

`COc1cnnc(Oc2ccnc(OC(F)F)c2)c1` came in with a melting point of 119 to 120 °C.

For `O=C1c2cccc(O)c2N=CC2CCCN12` (stereo not given), the melting point lay in the range of 146 to 148 °C.

In turn, `CCCNC(=O)C(C#N)=C1Nc2ccccc2O1` returned a melting point of 215 to 220 °C.

Take `O=C(Nc1ccccc1)C12CC3CC(CC(C3)C1)C2`: the melting point is 196 to 199 °C.

`Cc1cccc(C(=O)NN=Cc2cccc(Cl)c2O)c1` showed a melting point of 166 to 169 °C.

`COc1ccc2cc(C(OC)(OC)C(C)OS(=O)(=O)c3ccc(C)cc3)ccc2c1` (stereo not given) had a melting point of 148 to 150 °C.

In the case of `COc1ccc(NS(=O)(=O)c2ccc([N+](=O)[O-])cc2)cc1`, the melting point was in the range of 173 to 175 °C.

`O=C(O)Cc1ccc(-c2ccc(O)cc2)c(F)c1` showed a melting point of 208 to 210 °C.

Molecule `CCN(S(=O)(=O)NC(=O)N1N=C(C)CC1c1ccccc1)S(=O)(=O)N(C)C` (stereo not given) displayed a melting point of 138 to 139 °C.

`CCCCCCOC1CCC(=O)N1` (stereo not given) had a melting point of 35 to 37 °C.

`NC(=O)c1cc2c(Sc3ccccn3)cncc2s1` had a melting point of 239 to 242 °C.

`COc1cc2ncnc(N3CCN(C(=O)NCc4ccc(CO)cc4)CC3)c2cc1OC` showed a melting point of 228 to 229 °C.

`C=C(C)c1cc(Br)c(Oc2nc(C)nc(N3CCOCC3)n2)c(OC)c1` came in with a melting point of 63 to 67 °C.
